Results from ChEMBL document CHEMBL1151291, “Antiviral activity of lignans” (J Nat Prod, 1998).

Assays:
[1] = tested on: Human alphaherpesvirus 1; test: Antiviral activity against HSV1 infected in monkey CV-1 cells assessed as inhibition of plaque formation; format: functional, organism-based; details: Human alphaherpesvirus 1, CV-1
[2] = Cytotoxicity against human primary amnion cells assessed as morphological changes by microscopic examination; format: functional
[3] = Therapeutic index, ratio of MTC for human primary amnion cells to lowest drug level causing inhibition of HSV1; details: read-out: TI
[4] = tested on: Human alphaherpesvirus 1; test: Antiviral activity against HSV1 infected in human primary amnion cells assessed as inhibition of virus-induced pathogenic effect; format: functional
[5] = tested on: Vesicular stomatitis virus; test: Antiviral activity against VSV infected in BHK cells assessed as inhibition of plaque formation; format: functional, organism-based
[6] = tested on: Human immunodeficiency virus 1; test: Antiviral activity against HIV1 infected in human H9 cells assessed inhibition of viral replication; format: functional, organism-based; details: Human immunodeficiency virus 1, H9
[7] = Therapeutic index, ratio of inhibition of human H9 cells to EC50 for HIV1; format: cell-based; details: read-out: TI
[8] = tested on: Human immunodeficiency virus 1; test: Antiviral activity against HIV1 infected in human MT4 cells; format: functional, organism-based; details: Human immunodeficiency virus 1, MT4
[9] = tested on: MT4; test: Cytotoxicity against human MT4 cells; format: functional; details: read-out: CD50 (the source's name)
[10] = tested on: Human immunodeficiency virus; test: Antiviral activity against HIV assessed as reduction of viral protein production at 0.52 uM; format: functional; set-up: scale not given: the % may be the effect or the level left
[11] = tested on: Human immunodeficiency virus; test: Antiviral activity against HIV assessed as reduction of viral protein production at 0.27 uM; format: functional; set-up: scale not given: the % may be the effect or the level left
[12] = tested on: Human immunodeficiency virus; test: Antiviral activity against cross-resistant HIV mutant; format: functional; details: Human immunodeficiency virus 1; read-out: ED50 (the source's name)
[13] = tested on: Sindbis virus; test: Antiviral activity against Sindbis virus in mouse 3T3-L1 cells at 250 nM; format: functional
[14] = tested on: Murid betaherpesvirus 1; test: Antiviral activity against Murine cytomegalovirus in mouse 3T3-L1 cells at 250 nM; format: functional; details: Murid betaherpesvirus 1, 3T3-L1

COc1cc([C@@H]2c3cc4c(cc3[C@H](O)[C@H]3COC(=O)[C@H]23)OCO4)cc(OC)c1O
IC50 [1]: 100 nM
Activity [2]: >125 µM
selectivity ratio [3]: 250
Activity [4]: 0.5 µM
IC50 [5]: 250 nM

COc1ccc(C[C@H]2COC(=O)[C@@H]2Cc2ccc(O)c(O)c2)cc1OC
EC50 [6]: 420 nM
selectivity ratio [7]: 9

COc1cc([C@@H]2c3cc4c(c(O[C@@H]5O[C@H](CO)[C@@H](O)[C@H](O)[C@H]5O)c3C[C@H]3COC(=O)[C@@H]32)OCO4)cc(OC)c1OC
Activity [2]: 52 µM
selectivity ratio [3]: 3
Activity [4]: 17 µM

COc1cc([C@H]2c3c(cc(OC)c(OC)c3OC)C[C@@H](C)[C@@H]2C)cc(OC)c1OC
EC50 [8]: 3200 nM
CC50 [9]: 34000 nM

COc1cc([C@@H]2c3cc4c(cc3[C@@H](OC)[C@H]3COC(=O)[C@@H]23)OCO4)cc(OC)c1OC
IC50 [1]: 900 nM
IC50 [5]: 2300 nM

COc1cc([C@@H]2c3cc4c(cc3[C@H](OC)[C@H]3COC(=O)[C@H]23)OCO4)cc(OC)c1OC
IC50 [1]: 460 nM
IC50 [5]: 930 nM

COc1cc([C@@H]2c3cc4c(c(OC)c3C[C@H]3COC(=O)[C@@H]32)OCO4)cc(OC)c1OC
IC50 [1]: 23 nM
IC50 [5]: 23 nM

COc1cc([C@H]2c3c(cc(OC)c(OC)c3OC)C[C@H]3CSC[C@@H]32)cc(OC)c1OC
EC50 [8]: 800 nM
CC50 [9]: 58000 nM

COc1cc([C@H]2c3c(cc4c(c3OC)OCO4)C[C@H]3CSC[C@@H]32)cc(OC)c1OC
EC50 [8]: 5100 nM
CC50 [9]: 163000 nM

COc1cc([C@@H]2c3cc4c(cc3C=C3COC(=O)[C@H]32)OCO4)cc(OC)c1OC
IC50 [1]: 250 nM
IC50 [5]: 250 nM

COC(=O)[C@@H]1C(CO)=Cc2cc3c(cc2[C@H]1c1cc(OC)c(OC)c(OC)c1)OCO3
IC50 [1]: 460 nM
IC50 [5]: 460 nM

COc1cc(C[C@@]2(O)C(=O)OC[C@@H]2Cc2ccc(OC)c(OC)c2)ccc1O
Activity [10]: 60%
Activity [11]: 60%

COc1cc([C@@H]2c3cc4c(cc3[C@@H](OC)[C@H]3COC(=O)[C@H]23)OCO4)cc(OC)c1OC
IC50 [1]: 900 nM
IC50 [5]: 900 nM

COc1ccc([C@H]2c3c(cc4c(c3OC)OCO4)C[C@H]3CSC[C@@H]32)cc1OC
EC50 [8]: 3300 nM
CC50 [9]: > 840000 nM

COc1c(O)c(Br)c2c(c1OC)-c1c(c(Br)c(O)c(OC)c1OC)C[C@H](C)[C@H](C)C2
EC50 [12]: 100 nM

COc1c2c(cc3c1[C@H](c1ccc(OC(=O)c4ccccc4)c(O)c1)[C@H]1C(=O)OC[C@@H]1C3)OCO2
EC50 [8]: 5220 nM
CC50 [9]: > 840000 nM

COc1c(O)c(Cl)c2c(c1OC)-c1c(c(Cl)c(O)c(OC)c1OC)C[C@H](C)[C@H](C)C2
EC50 [12]: 100 nM

COc1cc([C@@H]2c3cc4c(c(O)c3C[C@H]3COC(=O)[C@@H]32)OCO4)cc(OC)c1O
inhibition at 0.25 µM [13]: 6%
Activity [2]: 200 µM
inhibition at 0.25 µM [14]: 85%
selectivity ratio [3]: 4000
Activity [4]: 0.05 µM

COc1cc([C@@H]2c3cc4c(cc3[C@@H](O)[C@H]3COC(=O)[C@H]23)OCO4)cc(OC)c1O [4'-DEMETHYLEPIPODOPHYLLOTOXIN]
Activity [2]: 13 µM
selectivity ratio [3]: 1
Activity [4]: 13 µM
